pIC50: −log10 of the molar value. Counter-ions that a name gives are not always drawn.

A word on the pIC50: it is the negative decadic logarithm of the IC50, by convention in mol/L. Low readings indicate a large IC50, high ones a small IC50.

The target of one experiment is BRD4(BD1) (Homo sapiens (Human), UniProt O60885). As to the kind of experiment: In vitro enzyme inhibition assay (BRD4 AlphaScreen). Format: binding.
Settings: not given
As to the method: His-tagged BRD4 was cloned, expressed and purified to homogeneity. […] BRD4 binding and inhibition was assessed by monitoring the interaction of biotinylated H4-tetraacetyl peptide (AnaSpec, H4K5/8/12/16(Ac), biotin-labeled) with the target using the AlphaScreen technology (Life Technologies). […] After 20 min incubation at room temp, Alpha streptavidin donor beads and Nickel Chelate acceptor beads were added to a final concentration of 5 μg/mL.
The ability of the compounds disclosed herein to inhibit BRD4 activity was quantified and the respective IC50 value was determined.
“8-[2-(cyclopropylmethoxy)-5-ethylsulfonylphenyl]-6-methyl-3,4,4a,8a-tetrahydro-2H-pyrido[4,3-b][1,4]oxazin-5-one [Example 366]”: the pIC50 is over 6.30.

The experiment is the same for the next values; noted with them: class symbols A/B/C.
As for `COc1ccc(-c2cn(C)c(=O)c3cc(F)ccc23)cc1S(N)(=O)=O` [Example 64, 5-(7-fluoro-2-methyl-1-oxoisoquinolin-4-yl)-2-methoxybenzenesulfonamide], the pIC50 was 5.30 to 6.30.
As to `Cn1cc(-c2ccn[nH]2)c2ccccc2c1=O` [Example 68, 2-methyl-4-(1H-pyrazol-5-yl)isoquinolin-1-one], the negative logarithm of the IC50 (pIC50) was under 5.30.
Still for that read-out and setting: the value for `Cn1cc(-c2ccco2)c2ccccc2c1=O` [Example 66, 4-(furan-2-yl)-2-methylisoquinolin-1-one] was under 5.30; that for `Cc1cc(=O)n(C)nc1-c1cc(S(C)(=O)=O)ccc1OCC1CC1` [Example 137, 6-[2-(cyclopropylmethoxy)-5-methylsulfonylphenyl]-2,5-dimethylpyridazin-3-one] was 5.30 to 6.30.
The same measure, in the same setting: the value for `Cn1cc(-c2ccccc2F)c2ccccc2c1=O` [Example 3, 4-(2-fluorophenyl)-2-methylisoquinolin-1-one] was under 5.30.
On the same count and under the same terms, under `CCS(=O)(=O)c1cccc(-c2cc(N)c(=O)n(C)c2)c1` [Example 108, 3-amino-5-(3-ethylsulfonylphenyl)-1-methylpyridin-2-one] stands under 5.30; under `Cn1cc(-c2cccc(S(=O)(=O)NC3CC3)c2)c2ccccc2c1=O` [Example 6, N-cyclopropyl-3-(2-methyl-1-oxoisoquinolin-4-yl) benzenesulfonamide], 5.30 to 6.30; under `Cn1cc(-c2cc(N)c(F)cc2F)c2ccccc2c1=O` [Example 24, 4-(5-amino-2,4-difluorophenyl)-2-methylisoquinolin-1-one hydrochloride], 5.30 to 6.30.
On to `Cn1cc(-c2ccc(F)c(N)c2)c2ccccc2c1=O` [Example 26, 4-(3-amino-4-fluorophenyl)-2-methylisoquinolin-1-one hydrochloride], for which the pIC50 was 5.30 to 6.30.
`Cn1cc(-c2cccc(S(C)(=O)=O)c2)n2cncc2c1=O` [Example 131, 7-methyl-5-(3-methylsulfonylphenyl)imidazo[1,5-a]pyrazin-8-one]: the pIC50 was under 5.30.
As for `Cc1c(-c2cccc(NS(C)(=O)=O)c2)cn(C)c(=O)c1C` [Example 97, N-[3-(1,4,5-trimethyl-6-oxopyridin-3-yl)phenyl]methanesulfonamide], the pIC50 is 5.30 to 6.30.
The same measure, in the same setting: under `COc1ccc(-c2cc(NCC3CC3)c(=O)n(C)c2)cc1NS(C)(=O)=O` [Example 112, N-[5-[5-(cyclopropylmethylamino)-1-methyl-6-oxopyridin-3-yl]-2-methoxyphenyl]methanesulfonamide] stands 5.30 to 6.30.

The same experiment, now with this note: in vitro enzyme inhibition assay.
Compound `CCS(=O)(=O)Nc1ncc(Oc2ccc(F)cc2F)c(-c2cc(C(C)C)c(=O)n(C)c2)n1` [Example 514, N-[5-(2,4-difluorophenoxy)-4-(1-methyl-6-oxo-5-propan-2-ylpyridin-3-yl)pyrimidin-2-yl]ethanesulfonamide] had a pIC50 of over 6.30.
Same read-out and setting: under `Cn1cc(-c2cc(S(C)(=O)=O)ccc2OCC2CC2)c2ncncc2c1=O` [Example 231, 8-[2-(cyclopropylmethoxy)-5-methylsulfonylphenyl]-6-methylpyrido[4,3-d]pyrimidin-5-one] stands 5.30 to 6.30; under `CCS(=O)(=O)Nc1cc(-c2cc(C)c(=O)n(C)c2)nc(Oc2ccc(F)cc2F)n1` [Example 347, N-[2-(2,4-difluorophenoxy)-6-(1,5-dimethyl-6-oxopyridin-3-yl)pyrimidin-4-yl]ethanesulfonamide], 5.30 to 6.30.
On the same count and under the same terms, under `CCCc1cnc(NS(=O)(=O)CC)nc1-c1cn(C)c(=O)c2ccccc12` [Example 306, N-[4-(2-methyl-1-oxoisoquinolin-4-yl)-5-propylpyrimidin-2-yl] ethanesulfonamide] stands over 6.30; under `Cn1cc(-c2cc(S(C)(=O)=O)cc3c2OC(C2CC2)C3)c2ccccc2c1=O` (stereo not shown) [Example 493, 4-(2-cyclopropyl-5-methylsulfonyl-2,3-dihydro-1-benzofuran-7-yl)-2-methylisoquinolin-1-one], over 6.30; under `Cc1cc(-c2cc(OCc3ccccn3)cc(S(C)(=O)=O)c2)cn(C)c1=O` [Example 330, 1,3-dimethyl-5-[3-methylsulfonyl-5-(pyridin-2-ylmethoxy)phenyl]pyridin-2-one], over 6.30.
Still for that read-out and setting: under `CCS(=O)(=O)Nc1cccc(-c2nn(C)c(=O)cc2C)c1` [Example 479, N-[3-(1,4-dimethyl-6-oxopyridazin-3-yl)phenyl]ethanesulfonamide] stands under 5.30.
The compound `CCCc1ccc(S(C)(=O)=O)cc1-c1cn(C)c(=O)c2ccccc12` [Example 314, 2-methyl-4-(5-methylsulfonyl-2-propylphenyl)isoquinolin-1-one] had a pIC50 of over 6.30.
The same measure, in the same setting: the value for `Cn1cc(-c2cc(S(C)(=O)=O)ccc2OCC2CCC2)ccc1=O` [Example 460, 5-[2-(cyclobutylmethoxy)-5-methylsulfonylphenyl]-1-methylpyridin-2-one] was over 6.30; that for `Cc1cc(-c2cc(OCc3ccc(F)cc3F)cc(S(C)(=O)=O)c2)cn(C)c1=O` [Example 335, 5-[3-[(2,4-difluorophenyl)methoxy]-5-methylsulfonylphenyl]-1,3-dimethylpyridin-2-one] was over 6.30; that for `Cc1cc(=O)n(C)cc1-c1cc(S(C)(=O)=O)ccc1NCC1CC1` [Example 422, 5-[2-(cyclopropylmethylamino)-5-methylsulfonylphenyl]-1,4-dimethylpyridin-2-one] was 5.30 to 6.30.
Turning to `Cc1cc(-c2cc(OCc3cccc(C#N)c3)cc(S(C)(=O)=O)c2)cn(C)c1=O` [Example 339, 3-[[3-(1,5-dimethyl-6-oxopyridin-3-yl)-5-methylsulfonylphenoxy]methyl]benzonitrile], the pIC50 was over 6.30.
Still for that read-out and setting: the value for `CCCC1Cc2cc(NS(=O)(=O)CC)cc(-c3cc(C)c(=O)n(C)c3)c2O1` (stereo not shown) [Example 495, N-[7-(1,5-dimethyl-6-oxopyridin-3-yl)-2-propyl-2,3-dihydro-1-benzofuran-5-yl] ethanesulfonamide] was over 6.30.
Still for that read-out and setting: the value for `Cn1cc(-c2cc(CS(C)(=O)=O)ccc2OCC(F)(F)F)cc(F)c1=O` [Example 421, 3-fluoro-1-methyl-5-[5-(methylsulfonylmethyl)-2-(2,2,2-trifluoroethoxy)phenyl]pyridin-2-one] was over 6.30.
`CCS(=O)(=O)c1ccc(OC)c(-c2cc(O)c(=O)n(C)c2)c1` [Example 461, 5-(5-ethylsulfonyl-2-methoxyphenyl)-3-hydroxy-1-methylpyridin-2-one] showed a pIC50 of 5.30 to 6.30.
Still for that read-out and setting: under `CCOc1ccc(S(C)(=O)=O)cc1-c1cn(C)c(=O)c2c1CCCC2` [Example 216, 4-(2-ethoxy-5-methylsulfonylphenyl)-2-methyl-5,6,7,8-tetrahydroisoquinolin-1-one] stands over 6.30; under `Cn1cc(-c2cc(OCc3ccccc3)cc(S(C)(=O)=O)c2)c2ccccc2c1=O` [Example 344, 2-methyl-4-(3-methylsulfonyl-5-phenylmethoxyphenyl)isoquinolin-1-one], over 6.30; under `CC(=O)Nc1nc(-c2cccc(NS(C)(=O)=O)c2)cn(C)c1=O` [Example 478, N-[6-[3-(methanesulfonamido)phenyl]-4-methyl-3-oxopyrazin-2-yl]acetamide], under 5.30.
`Cn1cc(-c2cc(S(C)(=O)=O)ccc2Oc2ccc(F)cc2F)c2ncncc2c1=O` [Example 233, 8-[2-(2,4-difluorophenoxy)-5-methylsulfonylphenyl]-6-methylpyrido[4,3-d]pyrimidin-5-one] showed a pIC50 of 5.30 to 6.30.
The same measure, in the same setting: the value for `Cn1cc(-c2cc(OCC3CC3)cc(S(C)(=O)=O)c2)c2ccccc2c1=O` [Example 345, 4-[3-(cyclopropylmethoxy)-5-methylsulfonylphenyl]-2-methylisoquinolin-1-one] was over 6.30; that for `CCS(=O)(=O)Cc1ccc(OCC(F)(F)F)c(-c2cc(C)c(=O)n(CCO)c2)c1` [Example 407, 5-[5-(ethylsulfonylmethyl)-2-(2,2,2-trifluoroethoxy)phenyl]-1-(2-hydroxyethyl)-3-methylpyridin-2-one] was 5.30 to 6.30.
On the same count and under the same terms, under `CCCCc1cnc(NS(=O)(=O)CC)nc1-c1cc(Cl)c(=O)n(C)c1` [Example 360, N-[5-butyl-4-(5-chloro-1-methyl-6-oxopyridin-3-yl)pyrimidin-2-yl]ethanesulfonamide] stands over 6.30; under `CCCCc1cnc(NS(=O)(=O)CC)nc1-c1cc(OC)c(=O)n(C)c1` [Example 362, N-[5-butyl-4-(5-methoxy-1-methyl-6-oxopyridin-3-yl)pyrimidin-2-yl]ethanesulfonamide], over 6.30.
Same read-out and setting: the value for `CCS(=O)(=O)Cc1ccc(OCC(F)(F)F)c(-c2cc(C)c(=O)n(C)c2)c1` [Example 411, 5-[5-(ethylsulfonylmethyl)-2-(2,2,2-trifluoroethoxy)phenyl]-1,3-dimethylpyridin-2-one] was over 6.30; that for `CCC#CCOc1ccc(S(=O)(=O)CC)cc1-c1cc(OC)c(=O)n(C)c1` [Example 390, 5-(5-ethylsulfonyl-2-pent-2-ynoxyphenyl)-3-methoxy-1-methylpyridin-2-one] was over 6.30.
Regarding `CCCCc1cnc(S(C)(=O)=O)nc1-c1cc(C)c(=O)n(C(C)C)c1` [Example 508, 5-(5-butyl-2-methylsulfonylpyrimidin-4-yl)-3-methyl-1-propan-2-ylpyridin-2-one], the pIC50 is over 6.30.
Still for that read-out and setting: under `Cc1cc(-c2cc(CS(C)(=O)=O)ccc2Oc2ccc(F)cc2F)cn(CCO)c1=O` [Example 406, 5-[2-(2,4-difluorophenoxy)-5-(methylsulfonylmethyl)phenyl]-1-(2-hydroxyethyl)-3-methylpyridin-2-one] stands over 6.30.
